Measurements published in article PMC7824033, “Flavones, Flavonols, and Glycosylated Derivatives—Impact on Candida albicans Growth and Virulence, Expression of CDR1 and ERG11, Cytotoxicity” (Pharmaceuticals, 2020).
Converted amounts (≈) assume the structure as drawn. “Also recorded” adds a separate entry of the source. Like-named read-outs stand apart in the source and are kept apart here.

Tests used:
[1] = system: C. albicans 475/15 biofilm formation; assay: Inhibition of biofilm formation (crystal violet); type: cell-based, Candida albicans
Protocol: Potential of selected compounds to interfere with C. albicans 475/15 biofilm formation was investigated as previously described. Briefly, C. albicans 475/15 was incubated with serial dilution of the compounds (MIC and subMICs) in YPD medium, in 96-well microtiter plates with adhesive bottom (Sarstedt, Nümbrecht, Germany), at 37 °C for 24 h. After incubation, wells were washed twice with sterile PBS and methanol was added into each well. After fixation, methanol was discarded, and the plate was air dried. Formed biofilms were stained with 0.1% crystal violet (Bio-Merieux, Craponne, France) for 30 min. The plate was gently washed under the tap of water and air dried. The stain bound to the remaining biofilms was dissolved with ethanol (96%, Zorka, Šabac, Serbia). Absorbance was read on a Multiskan™ FC Microplate Photometer, Thermo Scientific™. The percentage of inhibition of biofilm formation was calculated by the formula:[(A620control − A620sample)/A620control] × 100

ERG11 = assay: Expression of ERG11 (qPCR); type: cell-based, Candida albicans; conditions: treatment with MIC
Protocol: (§1) Total RNA was isolated as described by Sanglard et al. with some modifications. C. albicans 475/15 was grown with agitation at 30 °C in YEPD until OD540 = 0.4. C. albicans cells were incubated with MIC of compounds in YEPD at 30 °C with agitation for 30 min. Cells were centrifuged (4600 rpm, 4 °C for 5 min (Rotanata 460 R, Hettich, Tuttlingen, Germany)) and the pellet was resuspended in 300 µL of RNA buffer (0.1 M Tris-HCl pH 7.5, 0.1M LiCl, 10mM EDTA, 0.5% SDS). The pellet was homogenized with 200 µL of DEPC treated glass beads and 300 µL of Phenol:Chloroform:Isoamyl Alcohol (Sigma-Aldrich, Darmstadt, Germany) in Precellys Evolution tissue homogenizer (Bertion instruments, Montigny-le-Bretonneux, France) at 4500 rpm for 5 s. After centrifugation (14,000 rpm, 4 °C, 1 min (Universal 32 R, Hettich, Tuttlingen, Germany)) 200 µL of supernatant was vortexed with 250 µL of Phenol:Chloroform:Isoamyl Alcohol for 10 s. Samples were centrifuged (14,000 rpm, 4 °C, 1 min) and 200 µL of supernatant was transferred to new tubes, 400 µL of ice-cold 99% ethanol was added to each tube, and they were kept on dry ice for 10 min. Samples were centrifuged (14,000 rpm, 4 °C, 2 min), pellet was washed with ethanol (70%), left to dry at room temperature, after which it was dissolved in 50 µL of DEPC treated water. Nanodrop (ND-1000, Witec AG, Sursee, Switzerland) was used for determination of concentration and purity of samples. RNA was stored at −80°C.
(§2) Amount of 10 µg RNA was incubated with 5 µL of DNAse buffer and 1 µL of DNAse at 37 °C for 30 min (DNA-free™ DNA Removal Kit, Ambion, Bleiswijk, Netherlands). After addition of DNAse inactivation reagent tubes were kept at room temperature with occasional vortexing for 5 min. Samples were centrifuged (14,000 rpm, 4°C, 2 min) and the concentration and quality of supernatant were analyzed on Nanodrop (ND-1000, Witec AG, Sursee, Switzerland).
(§3) Synthesis of cDNA was done with a Transcriptor High Fidelity cDNA synthesis kit (Roche). RNA (1 µg) was incubated with 60 µM random hexamer primers, in 11.4 µL of total sample volume, at 65 °C for 10 min. The mixture of Transcriptase reaction buffer 5×, Deoxynucleotide mix, DTT, Protector RNAse inhibitor, and Transcriptor High Fidelity Reverse Transcriptase was added to each tube according to manufacturer instructions. Synthesis of cDNA was completed by incubating the mixture at 50 °C for 30 min and 85 °C for 5 min (Peqstar thermocycler, Peqlab, Erlangen, Germany).
(§4) Wells of MicroAmp Fast 96-Well Reaction plate ((0.1 mL), Applied biosystems, Waltham, MA, USA) were incubated with 10 µL of mixture (cDNA, 2× MasterMix, primers, probe (Table 3), and water). Analysis was performed in StepOnePlus Real Time PCR system with relative standard curve method. Expression levels of CDR1 and ERG11 were normalized to expression of ACT1.

[2] = system: non-tumor colon cell (IEC-18); design: method as in PMID 25359775; conditions: up to 150 μM; cited from earlier work
CDR1 = assay: Expression of CDR1 (qPCR); type: cell-based, Candida albicans; conditions: treatment with MIC
Protocol: as §1, §2, §3, §4

[3] = system: C. albicans morphological transition; conditions: cited from earlier work
S. aureus efflux = system: S. aureus efflux; design: method as in PMID 25961825; conditions: S. aureus; cited from earlier work
ALS1, ALS3, HWP1, SUN41 = conditions: ref 18; cited from earlier work
[4] = system: HUVE (human umbilical vein endothelial) cells; conditions: read-out: LC50; cited from earlier work

For `O=c1c(O[C@@H]2O[C@H](CO)[C@@H](O)[C@H](O)[C@H]2O)c(-c2ccc(O)c(O)c2)oc2cc(O)cc(O)c12` [Isoquercitrin, isoquercitrin], the “antibiofilm activity” value ([1]; MIC and subMICs) was “excellent activity; also recorded: notably lowered”, the “inhibition of biofilm formation” value ([1]; compound applied at MIC) was 76% and the “inhibition of biofilm formation” value ([1]; compound applied at MIC/2) was > 60%. The “impact on ERG11 expression (words)” value (ERG11) was “increased expression levels”, the “ERG11 expression level, Log2FC” value (ERG11; 30 min, normalized to ACT1) was > 1 Log2FC and the “impact on ERG11 expression (words)” value (ERG11; listed as isoquercitrin) was “upregulated; also recorded: increased ERG11 expression”. The “cytotoxic effects” value [2] was “did not show cytotoxic effects”.
In the case of `O=c1c(O)c(-c2ccc(O)c(O)c2)oc2cc(O)cc(O)c12` [Quercetin, quercetin], the “impact on CDR1 expression” value (CDR1) is listed as “did not exhibit any significant inhibitory potential”, the “concentration leading to reduction of morphological transition” value ([3]; ref 18) is listed as 64 µg/mL and the “concentration leading to reduction of morphological transition” value ([3]; ref 28) is listed as “up to 200 µg/mL”. For the same molecule, the “IC50, efflux inhibition” value (S. aureus efflux) was 75 µg/mL (≈ 248 µM), the “ALS1, ALS3, HWP1 and SUN41 expression levels” value (ALS1, ALS3, HWP1, SUN41) was “reduced” and the CC50 [4] was 61 µM.
